Results from PMC9320521, “Detection of Unprecedented CYP74 Enzyme in Mammal: Hydroperoxide Lyase CYP74C44 of the Bat Sturnira hondurensis” (International Journal of Molecular Sciences, 2022).

Test system: CYP74C44 (ShHPL)
Test: UV absorbance decrease at […] nm
Assay type: biochemical, Sturnira hondurensis
Details: Na phosphate buffer pH 7.0, 25 °C, 5 to 150 μM substrate

Km [µM]	Compound
57.9 ± 13.3	CCCCC[C@@H](/C=C/C=C\CCCCCCCC(=O)O)OO [13-HPOD, (9Z,11E,13S)-13-hydroperoxy-9,11-octadecadienoic]
28.4 ± 6.7	CC/C=C\C[C@@H](/C=C/C=C\CCCCCCCC(=O)O)OO [13-HPOT, (9Z,11E,13S,15Z)-13-hydroperoxy-9,11,15-octadecatrienoic]
46.6 ± 7.2	CCCCC/C=C\C=C\[C@H](CCCCCCCC(=O)O)OO [9-HPOD, (9S,10E,12Z)-9-Hydroperoxy-10,12-octadecadienoic]
20.9 ± 5.6	CC/C=C\C/C=C\C=C\[C@H](CCCCCCCC(=O)O)OO [9-HPOT, (9S,10E,12Z,15Z)-9-hydroperoxy-10,12,15-octadecatrienoic]
8.17 ± 1.6	CC/C=C\C[C@@H](/C=C/C=C\C/C=C\C/C=C\CCCC(=O)O)OO [15-HPEPE]
